Reference: PubChem BioAssay AID2060343 (Molecular Pharmacology Branch, DTP, NCI, 2025)

Test system: 138582-337-R-J1-PDC spheroids with HUVEC/MSC, viability
Assay: Anticancer human tumor 138582-337-R-J1-PDC patient-derived Merkel cell tumor cell line growth inhibition [IpAb]
Details: for IC50: curve of first compound; for viability, T/C: stronger effect = lower value
Procedure, shortened: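 Combinations with ipatasertib or abemaciclib were tested on tumour spheroids holding HUVEC (25%) and MSC (15%) alongside 60% malignant cells. Top concentration was at or near clinical Cmax (10 microM if undefined), descending in half-log steps.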

[1] = second compound 0.1 µM, first compound 0.0316 µM
[2] = second compound 0.1 µM, first compound 0.1 µM
[3] = second compound 0.1 µM, first compound 0.316 µM
[4] = second compound 0.1 µM, first compound 1 µM
[5] = second compound 0.1 µM, first compound 3.16 µM
[6] = second compound 0.1 µM, first compound 10 µM
[7] = second compound 0.316 µM, first compound 0.0316 µM
[8] = second compound 0.316 µM, first compound 0.1 µM
[9] = second compound 0.316 µM, first compound 0.316 µM
[10] = second compound 0.316 µM, first compound 1 µM
[11] = second compound 0.316 µM, first compound 3.16 µM
[12] = second compound 0.316 µM, first compound 10 µM
[13] = second compound 1 µM, first compound 0.0316 µM
[14] = second compound 1 µM, first compound 0.1 µM
[15] = second compound 1 µM, first compound 0.316 µM
[16] = second compound 1 µM, first compound 1 µM
[17] = second compound 1 µM, first compound 3.16 µM
[18] = second compound 1 µM, first compound 10 µM
[19] = second compound 3.16 µM, first compound 0.0316 µM
[20] = second compound 3.16 µM, first compound 0.1 µM
[21] = second compound 3.16 µM, first compound 0.316 µM
[22] = second compound 3.16 µM, first compound 1 µM
[23] = second compound 3.16 µM, first compound 3.16 µM
[24] = second compound 3.16 µM, first compound 10 µM
[25] = second compound 10 µM, first compound 0.0316 µM
[26] = second compound 10 µM, first compound 0.1 µM
[27] = second compound 10 µM, first compound 0.316 µM
[28] = second compound 10 µM, first compound 1 µM
[29] = second compound 10 µM, first compound 3.16 µM
[30] = second compound 10 µM, first compound 10 µM
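Note: spheroids exposed to compounds for seven days.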
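Throughout, for viability, T/C: 100% = DMSO vehicle control viability.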

Structure (SMILES)	IC50 (second compound 0.1 µM) [µM]	IC50 (second compound 0.316 µM) [µM]	IC50 (second compound 1 µM) [µM]	IC50 (second compound 3.16 µM) [µM]	IC50 (second compound 10 µM) [µM]	viability, T/C [1] [%]	viability, T/C [2] [%]	viability, T/C [3] [%]	viability, T/C [4] [%]	viability, T/C [5] [%]	viability, T/C [6] [%]	viability, T/C [7] [%]	viability, T/C [8] [%]	viability, T/C [9] [%]	viability, T/C [10] [%]	viability, T/C [11] [%]	viability, T/C [12] [%]	viability, T/C [13] [%]	viability, T/C [14] [%]	viability, T/C [15] [%]	other results
CCCS(=O)(=O)Nc1ccc(F)c(C(=O)c2c[nH]c3ncc(-c4ccc(Cl)cc4)cc23)c1F + CC(C)NCC(C(=O)N1CCN(c2ncnc3c2C(C)CC3O)CC1)c1ccc(Cl)cc1	> 10	> 10	4.18	< 0.0316	< 0.0316	87.4	86.3	88.9	89.7	102	68.2	73.2	77.2	66	68	71.7	51.6	67.3	61.2	61.3	viability, T/C [16]: 54.5%; viability, T/C [17]: 58%; viability, T/C [18]: 36%; viability, T/C [19]: 47.2%; viability, T/C [20]: 48.5%; viability, T/C [21]: 47.1%; viability, T/C [22]: 45%; viability, T/C [23]: 42.5%; viability, T/C [24]: 21.3%; viability, T/C [25]: 41.8%; viability, T/C [26]: 47.8%; viability, T/C [27]: 43.7%; viability, T/C [28]: 35.7%; viability, T/C [29]: 31.1%; viability, T/C [30]: 1.88%
C=CCn1c(=O)c2cnc(Nc3ccc(N4CCN(C)CC4)cc3)nc2n1-c1cccc(C(C)(C)O)n1 + CC(C)NCC(C(=O)N1CCN(c2ncnc3c2C(C)CC3O)CC1)c1ccc(Cl)cc1	> 10	> 10	> 10	< 0.0316	< 0.0316	96.8	95.6	78	99.6	99.1	134	85.5	73.6	74.7	71.4	94.2	117	66.7	73.5	54.5	viability, T/C [16]: 63.6%; viability, T/C [17]: 83.4%; viability, T/C [18]: 89.1%; viability, T/C [19]: 58.1%; viability, T/C [20]: 53.6%; viability, T/C [21]: 38.9%; viability, T/C [22]: 46.6%; viability, T/C [23]: 74.8%; viability, T/C [24]: 73.8%; viability, T/C [25]: 54.6%; viability, T/C [26]: 41.5%; viability, T/C [27]: 33.9%; viability, T/C [28]: 42%; viability, T/C [29]: 60.1%; viability, T/C [30]: 55.5%
